Experimental data as given in ChEMBL document CHEMBL1649462, “Concentrations of voriconazole in healthy and inflamed lung in rats” (Antimicrob Agents Chemother, 2009).

What was measured:
Lung [1] = test: Free AUC (0 to 6 hrs) in lung of healthy Wistar rat at 6 mg/kg, iv administered as single dose after 6 hrs by microdialysis technique; assay type: ADME, organism-based; design: dose 6 mg/kg, route intravenous; conditions: in vivo
[2] = AUC (0 to 6 hrs) in plasma of healthy Wistar rat at 6 mg/kg, iv administered as single dose after 6 hrs by microdialysis technique; assay type: ADME, organism-based; design: time < 6 hr, dose 6 mg/kg, route intravenous
[3] = Free AUC (0 to 6 hrs) in skeletal muscle of healthy Wistar rat at 6 mg/kg, iv administered as single dose after 6 hrs by microdialysis technique; assay type: ADME, organism-based, Muscle tissue; design: dose 6 mg/kg, route intravenous; conditions: in vivo
[4] = Cmax in plasma of healthy Wistar rat at 6 mg/kg, iv administered as single dose after 6 hrs by microdialysis technique; assay type: ADME, organism-based; design: dose 6 mg/kg, route intravenous
Lung [5] = test: fCmax in lung of healthy Wistar rat at 6 mg/kg, iv administered as single dose after 6 hrs by microdialysis technique; assay type: ADME, organism-based; design: dose 6 mg/kg, route intravenous; conditions: in vivo
[6] = fCmax in skeletal muscle of healthy Wistar rat at 6 mg/kg, iv administered as single dose after 6 hrs by microdialysis technique; assay type: ADME, organism-based, Muscle tissue; design: dose 6 mg/kg, route intravenous; conditions: in vivo
[7] = Tmax in plasma of healthy Wistar rat at 6 mg/kg, iv administered as single dose after 6 hrs by microdialysis technique; assay type: ADME, organism-based; design: dose 6 mg/kg, route intravenous
[8] = fTmax in lung of healthy Wistar rat at 6 mg/kg, iv administered as single dose after 6 hrs by microdialysis technique; assay type: ADME, organism-based; design: dose 6 mg/kg, route intravenous; conditions: read-out: fTmax (converted)
[9] = fTmax in skeletal muscle of healthy Wistar rat at 6 mg/kg, iv administered as single dose after 6 hrs by microdialysis technique; assay type: ADME, organism-based, Muscle tissue; design: dose 6 mg/kg, route intravenous; conditions: read-out: fTmax (converted)
[10] = Half life in plasma of healthy Wistar rat at 6 mg/kg, iv administered as single dose after 6 hrs by microdialysis technique; assay type: ADME, organism-based; design: dose 6 mg/kg, route intravenous
[11] = AUC (0 to 6 hrs) in plasma of Wistar rat with LPS-induced severe inflammatory response at 6 mg/kg, iv administered as single dose after 6 hrs by microdialysis technique; assay type: ADME, organism-based; design: time < 6 hr, dose 6 mg/kg, route intravenous
[12] = AUC (0 to 6 hrs) in lung of Wistar rat with LPS-induced severe inflammatory response at 6 mg/kg, iv administered as single dose after 6 hrs by microdialysis technique; assay type: ADME, organism-based; design: time < 6 hr, dose 6 mg/kg, route intravenous
[13] = AUC (0 to 6 hrs) in skeletal muscle of Wistar rat with LPS-induced severe inflammatory response at 6 mg/kg, iv administered as single dose after 6 hrs by microdialysis technique; assay type: ADME, organism-based; design: time < 6 hr, dose 6 mg/kg, route intravenous
[14] = Cmax in plasma of Wistar rat with LPS-induced severe inflammatory response at 6 mg/kg, iv administered as single dose after 6 hrs by microdialysis technique; assay type: ADME, organism-based; design: dose 6 mg/kg, route intravenous
Lung [15] = test: fCmax in lung of Wistar rat with LPS-induced severe inflammatory response at 6 mg/kg, iv administered as single dose after 6 hrs by microdialysis technique; assay type: ADME, organism-based; design: dose 6 mg/kg, route intravenous; conditions: in vivo
[16] = fCmax in skeletal muscle of Wistar rat with LPS-induced severe inflammatory response at 6 mg/kg, iv administered as single dose after 6 hrs by microdialysis technique; assay type: ADME, organism-based, Muscle tissue; design: dose 6 mg/kg, route intravenous; conditions: in vivo
[17] = Tmax in plasma of Wistar rat with LPS-induced severe inflammatory response at 6 mg/kg, iv administered as single dose after 6 hrs by microdialysis technique; assay type: ADME, organism-based; design: dose 6 mg/kg, route intravenous
[18] = fTmax in lung of Wistar rat with LPS-induced severe inflammatory response at 6 mg/kg, iv administered as single dose after 6 hrs by microdialysis technique; assay type: ADME, organism-based; design: dose 6 mg/kg, route intravenous; conditions: read-out: fTmax (converted)
[19] = fTmax in skeletal muscle of Wistar rat with LPS-induced severe inflammatory response at 6 mg/kg, iv administered as single dose after 6 hrs by microdialysis technique; assay type: ADME, organism-based, Muscle tissue; design: dose 6 mg/kg, route intravenous; conditions: read-out: fTmax (converted)
[20] = Half life in plasma of Wistar rat with LPS-induced severe inflammatory response at 6 mg/kg, iv administered as single dose after 6 hrs by microdialysis technique; assay type: ADME, organism-based; design: dose 6 mg/kg, route intravenous
[21] = Protein binding in female Sprague-Dawley rat plasma at 30 mg/kg, po for 6 days; assay type: ADME, organism-based; design: dose 30 mg/kg, route oral; conditions: read-out: PPB (converted)
[22] = Protein binding in male Sprague-Dawley rat plasma at 30 mg/kg, po for 6 days; assay type: ADME, organism-based; design: dose 30 mg/kg, route oral; conditions: read-out: PPB (converted)

## C[C@@H](c1ncncc1F)[C@](O)(Cn1cncn1)c1ccc(F)cc1F [VORICONAZOLE]
Lung [1]
  fAUC: 608 mg·min/L
[2]
  AUC(0-t) at 6 h: 19600 ng·h/mL
[3]
  fAUC: 530 mg·min/L
[4]
  Cmax: 5400 ng/mL
Lung [5]
  fCmax: 2.6 mg/L
[6]
  fCmax: 2.2 mg/L
[7]
  Tmax: 0.817 h
[8]
  Tmax: 2.28 h
[9]
  Tmax: 3.25 h
[10]
  half-life: 10.2 h
[11]
  AUC(0-t) at 6 h: 22700 ng·h/mL
[12]
  AUC(0-t) at 6 h: 8170 ng·h/mL
[13]
  AUC(0-t) at 6 h: 8450 ng·h/mL
[14]
  Cmax: 6300 ng/mL
Lung [15]
  fCmax: 2.3 mg/L
[16]
  fCmax: 2.2 mg/L
[17]
  Tmax: 0.25 h
[18]
  Tmax: 1.87 h
[19]
  Tmax: 2.17 h
[20]
  half-life: 11.3 h
[21]
  fraction unbound at 144 h: 0.34
[22]
  fraction unbound at 144 h: 0.34
